# Assay results from patent US20200399238A1, “THERAPEUTIC AURONES” (MIDDLE TENNESSEE STATE UNIVERSITY, priority 2016, published 2020).
# Like-named read-outs stand apart in the source and are kept apart here.
# Columns and labels:
# [1] = tested on: PMA-differentiated THP-1 cells; assay: Alamar Blue cell viability assay, THP-1; assay type: cell-based, human
# Protocol: THP-1 cells were maintained in RPMI 1640 medium supplemented with 10% heat-inactivated FBS and 1% penicillin/streptomycin (complete culture medium) at 37° C. with 5% CO2 supplemented. Cell concentrations were adjusted to desired concentrations for each experiment by centrifugation at 500×g for 5 min and resuspended in complete culture medium with 100 nM of PMA. Cell concentration was adjusted to 5×10^5 cells/ml for all assays with the exception of 2.5×10^5 cells/ml were used for NF-κB nuclear translocation assay. Cells were seeded onto 96-, 24-, or 12-well plates and incubated for 48 to 72 h to allow for differentiation. Cells were washed with serum-free RPMI 1640 medium before each experiment to remove undifferentiated cells. […] Cells were seeded into tissue culture plates at 10% confluence and grown to 80% confluence within 72 h. For live cell microscopy, 1×10^5 cells/ml were seeded into 35 mm glass-bottom (MatTek) dishes 24 h prior to imaging. For luciferase assays, 1.2×10^5 cells/well were seeded into 24-well tissue culture-treated plates.
# Following treatment, the relative cell viability was measured by Alamar Blue assay. For Alamar Blue assays, supernatants were replaced with culture medium containing 1× Alamar Blue reagent and incubated overnight. Cell viability was assessed by measuring relative fluorescent units (RFU) on the SpectraMax M2e microplate reader (Molecular Devices Inc., Sunnyvale, Calif., USA) at Ex 560 nm and Em 590 nm. The results were expressed as a percentage relative to LPS alone control cells. The effects of the vehicle control, DMSO, on cell viability were also assessed.
# (§1) Dexamethasone is a synthetic glucocorticoid that suppresses LPS-induced pro-inflammatory cytokine expression and was used as a control (Abraham, Lawrence et al. 2006). Supernatants were collected for human cytokine ELISAs and the manufacturer's protocol was followed to assess the cytokine response. Cells remaining after the supernatant collection were tested for relative viability by Alamar Blue cytotoxicity assay as previously described.
# TNFα = assay: Cytokine response by ELISA, TNFα; assay type: cell-based, human
# Protocol: as §1
# [2] = tested on: C. glabrata (ATCC strain 66032); assay: Antifungal microdilution broth assay (PrestoBlue), C. glabrata; assay type: cell-based, Candida glabrata; details: Nakaseomyces glabratus, ATCC66032; Table 5
# Protocol: Sigma-Aldrich) was used as the base medium for testing. […] solution of morpholinepropanesulfonic acid (MOPS; Sigma-Aldrich) was added to the RPMI to a final concentration of 0.165 M for buffering (RPMI-MOPS). This medium was adjusted to a pH of 7.0 with 10 M NaOH and filter sterilized. C. albicans (ATCC strain 90028), C. [NT] strain 66032), and C. tropicalis (ATCC strain 750) were cultured on potato dextrose agar (Sigma-Aldrich) plates, and incubated at 35° C. for 24 hours. For antifungal testing, overnight colonies were adjusted to 1.5×10^3 cells/mL, hereafter referred to as the test inoculum. […] Reduction of the compound from resazurin to resorufin is proportional to the number of metabolically active cells and can be quantified by measuring relative fluorescence units (RFUs). […] PrestoBlue was added to a final concentration of 10% in each well and fluorescence read at 560 nm excitation and 590 nm emission, per manufacturer instructions, using a SpectraMax M2e spectrophotometer (Molecular Devices, LLC, Sunnyvale, Calif.). […] The calculated Z', as described below, was compared to RFU readings and the optimal PrestoBlue incubation time was determined to be 75 minutes. IC50 determination was calculated using GraphPad Prism version 7.01 for Windows (GraphPad Software, Inc., La Jolla, Calif.) from the RFUs at dilution points. […]
# [3] = tested on: C. albicans (ATCC strain 90028); assay: Antifungal microdilution broth assay (PrestoBlue), C. albicans; assay type: cell-based, Candida albicans; details: Candida albicans
# How it was run: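 Inoculum of 1.5×10^3 cells/mL in RPMI-MOPS (0.165 M MOPS, pH 7.0), exposed to aurones for 24 h at 35 °C. Growth read by PrestoBlue (10% final) fluorescence at ex 560/em 590 nm.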
Structure (SMILES),THP-1 cell viability (Alamar Blue) ([1]; 100 μM with LPS),"THP-1 cell viability (Alamar Blue) ([1]; 20, 40, 80 μM with LPS for 4 h)","Average % Viability (4 h with LPS) ([1]; THP-1 cells, 20 μM, 4 h with LPS, mean ± SD)","inhibition at 20 µM (TNFα; Homo sapiens, LPS-stimulated THP-1 cells, 20 μM, mean ± SD, read-out: Average % TNF-α Inhibition)","suppression of TNFα expression (TNFα; LPS-stimulated THP-1, ELISA, FIG. 9A, concentration not printed with the value (20-80 μM tested))",IC50 [2],"IC50 ([3]; ATCC90028, Table 5, read-out: IC50 C. albicans)","IC50 ([3]; ATCC90028, across C. albicans, C. glabrata, and C. tropicalis, read-out: IC50 values against Candida species)"
O=C1/C(=C/c2ccc(CO)o2)Oc2ccccc21 [aurone 1],less than 90%,no effect on cell viability,96.0 ± 0.6%,25.3 ± 6.1%,93.8%,–,–,–
"COc1ccc(/C=C2\Oc3c(ccc(O)c3O)C2=O)cc1O [Aurone 1009, (Z)-6,7-dihydroxy-2-(3-hydroxy-4-methoxybenzylidene)benzofuran-3(2H)-one]",–,–,–,–,–,11 µM,16 µM,10 to 18 µM
